Entries after “also recorded” stand apart in the source; their conditions may differ. Each block holds one compound with its values, some of them ahead of it. Where no end group is shown, it is not given here.
Key:
I-A^d molecule = molecular target: T1, I-A^d molecule (Mus musculus, UniProt P01921+P04228); test: Peptide-binding assay on CH1-IA^d cells (FITC-streptavidin, flow cytometry); settings: CH1-IA^d cells (FIG. 17)
T1 construct: expressed in transfected cells; host or cells: CH1 cells, retroviral transduction with pMX (I-Aβ-IRES-I-Aα)
T1 sequence (P04228 24-256): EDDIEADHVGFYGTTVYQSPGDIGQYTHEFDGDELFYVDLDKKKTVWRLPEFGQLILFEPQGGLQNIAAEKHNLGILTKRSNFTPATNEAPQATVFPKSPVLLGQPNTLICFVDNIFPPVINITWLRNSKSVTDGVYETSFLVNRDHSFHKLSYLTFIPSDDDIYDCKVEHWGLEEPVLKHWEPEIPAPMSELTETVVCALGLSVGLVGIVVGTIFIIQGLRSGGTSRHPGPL
T1 sequence (P01921 28-265): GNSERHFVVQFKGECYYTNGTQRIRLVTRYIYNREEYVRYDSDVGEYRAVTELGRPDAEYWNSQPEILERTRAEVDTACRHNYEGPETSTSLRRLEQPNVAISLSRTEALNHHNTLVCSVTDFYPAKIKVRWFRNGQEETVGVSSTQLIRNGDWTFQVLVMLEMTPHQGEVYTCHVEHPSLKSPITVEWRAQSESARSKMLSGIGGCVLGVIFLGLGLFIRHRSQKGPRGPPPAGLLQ
Experimental: The CH1-IA^d or CH1-IA^b cells were suspended in 2% BSA IMDM to 2×10^6 cells/ml. The cell suspension (100 μl) was added to peptide (100 μl) continuously diluted with serum-free IMDM. After incubating at 37° C. for 2 hr, 6 hr or 16 hr, the cells were washed and stained with FITC-streptavidin. The amount of peptide bound to the cells was measured by flow cytometry.

[1] = test system: peptidase activity in the serum; test: Effect of peptidase inhibitor on OVII peptide digestion by mouse serum; type: biochemical; settings: inhibitor-containing buffer (FIGS. 22-24)
From the text: Given the above-mentioned Examples, the inventor examined the effect of peptidase inhibitor on the peptide digestion to identify the peptidase in the serum.

DO11.10 cells [2] = test: Growth of CD4 T cells: proliferation of DO11.10 cells by OVII modified peptides (3H-thymidine); type: cell-based, mouse
[3] = Degradation of peptide in 10% fresh mouse serum (HPLC of remaining peptide); settings: mouse, 10% fresh mouse serum
Experimental: (§1) Peptide was digested in TBS containing 10% fresh mouse serum or fresh human serum. After incubation at 37° C. for a given time, 1% trifluoro acid was added to remove various serum proteins by precipitation. After short centrifugation, the soluble fraction was analyzed by reversed-phase HPLC using a C18 analysis column. To normalize variation in the total amount of the peptide loaded for each HPLC, the peak of non-protein components contained in the serum, which is absorbed at the wavelength of 220 nm, was used as an internal control. The peak area of undigested peptides was quantitatively monitored by Chromatopac C-R8A (Shimadzu Corp., Kyoto, Japan), and the amount of the remaining peptide was calculated.
(§2) Therefore, the inventor examined the digestion resistance of peptide in vitro in a 10% fresh mouse serum. The amount of a remaining undigested peptide was quantified by HPLC.

serum peptidase [4] = test: as above; settings: 10% fresh mouse serum, up to 16 hr (FIG. 21)
Experimental: as §1, §2

DO11.10 cells [5] = test: Cell migration test through F2-IA^d cell layer (Transwell); type: cell-based, mouse
Experimental: F2-IA^d cells were cultured until confluence on an insert of Transwell plate (BD Labware, Billerica, Calif.). The cells were cultured in the presence of 500 U/ml rmIFN-γ for the last 3 days of culture. In addition, F2-IA^d cells were pulsed with various concentrations of OVAII peptide for the last 2 hr of culture. After the culture, F2-IA^d cells were washed and CD4^+ cells were isolated by negative selection (Dynal mouse CD4 negative isolation kit (Invitrogen)) from DO11.10 transgenic spleen cells to not less than 95% purity, which were added by 4×10^6 cells per well. The cells were incubated at 37° C., and the number of DO11.10 that migrated under the chamber in 6 hr was counted.

DO11.10 cells [6] = test: Antigen presentation by F2-IA^d vascular endothelial cells (CD69 expression by DO11.10 cells); type: cell-based, mouse
Experimental: EL4 cells were first opsonized with RGD peptide. Next, 5 mg/ml OVA protein was loaded on the cytoplasm by osmotic pressure loading. After sufficient washing, 2×10^6 EL4 cells were added to a confluent culture medium of F2-IA^d cells on a 24-well plate (cultured for 2 days in advance in the presence of 500 U/ml rmIFN-γ). As a control, EL4 and EG7 mock-loaded with PBS were RGD-modified in the same manner and used. EL4 and other target cells were added to F2-IA^d, and the cell mixture was cultured for 24 hr. As for the control well wherein F2-IA^d cells were directly loaded with OVAII peptide, the cells were pulsed with peptide for 2 hr at the end of the culture. After removing the non-adherent cells and debris of dead cells, the surface of the adhered F2-IA^d cells was sufficiently washed. In an antigen presentation inhibitory experiment using chloroquine, 100 μM chloroquine was added 30 min before addition of EL4, EL4 loaded with OVA or 0.25 mg/ml OVA protein. Furthermore, F2-IA^d cells were cultured for 3 days in the continuous presence of chloroquine.
Whether the F2-IA^d cells presented the target antigen polypeptide on the cell surface was evaluated by monitoring the expression of CD69 by DO11.10 cells. The antigen-presenting F2-IA^d cells and DO11.10 cells were mixed and centrifuged to contact the cells with one another. After 6 hr and 24 hr, the cells were stained with biotin-labeled anti CD69 mAb (H1.2F3, BD Biosciences), and the expression of CD69 by DO11.10 cells was detected by flow cytometry (stained positive with FITC-labeled KJ1.26 (anti clonotypic TCR mAb)).

EG7 tumor = test: Antitumor activity by in vivo immunization with OVA-derived peptides (EL4 / EG7 tumor); settings: CBF1 mouse, peptide-loaded LPS blast i.p. 3 times; EL4 / EG7 tumor (FIG. 8)
From the text: CBF1 mouse was immunized with LPS blast of splenocyte pulsed with either λ repressor peptide ([…]; SEQ ID NO: 39) or OVAII peptide as a Th epitope peptide, and K^b-binding OVA-I peptide, which is a CTL inducing peptide. LPS blast derived from one spleen was pulsed with peptide, and intraperitoneally injected to immunize two mice. The next day of the third immunization, 9×10^6 EL4 cells and 1.2×10^7 EG7 cells were intradermally transplanted in a pair on the back skin of the mice. The tumor size was measured every other day. Immunization was performed once again 2 weeks from the tumor transplantation.
To verify the anti-tumor effect of inducing tumor-specific Th cells in vivo, the inventor compared the immunization protocol that induces 1. CTL alone, 2. CTL and a third party antigen-specific Th cell, and 3. CTL and tumor-specific Th cell. As the antigen presenting cell, LPS blast of spleen cell was used, and the APC loaded with each peptide alone or the mixture of each peptide was injected intraperitoneally 3 times (once per week). On the day of third immunization, 9×10^6 EL4 and 1.2×10^7 EG7 tumor were innoculated on the opposite sides of the back, and the tumor diameter was measured from day 4.

Th cell = test: In vivo immunization using modified molecule of WA36 (IFN-γ positive Th cells); design: species or system mouse; settings: IFN-γ positive Th cells (FIG. 27)
[7] = test system: FBL3 erythroleukemia cells; test: In vivo antitumor activity in FBL3 tumor mice immunized with MHC class I and class II peptide; settings: CBF1 mouse
From the text: In the immunization experiment using mouse, the mouse was immunized with PbW332bPβ peptide as a Th-inducing peptide, and Db126 peptide as a CTL inducing peptide. As a tumor to be inoculated to the mouse, FBL3 erythroleukemia cell that highly expresses natural WT1 tumor antigen was used. FBL3 is a cell line that was transformed by infection with Friend leukemia virus, and has high possibility of also expressing virus antigen. In fact, when 2×10^7 FBL3 cells were intradermally injected on the back of the mouse, they grew into a solid tumor. However, the tumor had the tendency to shrink naturally after reaching the maximum size. […] Over time, the tumor sometimes started to grow rapidly in a long-term observation.
CBF1 mouse was immunized in advance by subcutaneous injection of 50 nmoles of Db126 peptide alone, or Db126 peptide and 50 nmoles of W332 peptide, to 4 sites in the top, bottom, left and right of the back. A vaccine of 5×10^7 Bordetella pertussis whole cells was added as an adjuvant to all immunization groups including control PBS inoculation group. The mouse was immunized 3 times (once per week) and then 2×10^7 FBL3 cells were subcutaneously injected to the back.

ACE = molecular target: T2, ACE (Mus musculus, UniProt P09470); test: ACE activity of antigen presenting cell (CH1-IA^d cells, Abz-FRK(Dnp)P-OH substrate); type: cell-based; settings: 2.5 mM inhibitor, preincubated 37° C. 20 min; 10 μM Abz-FRK(Dnp)P-OH (FIG. 25)
T2 construct: endogenous in cells; host or cells: CH1-IA^d cells (living, in PBS)
T2 sequence (P09470 35-1312): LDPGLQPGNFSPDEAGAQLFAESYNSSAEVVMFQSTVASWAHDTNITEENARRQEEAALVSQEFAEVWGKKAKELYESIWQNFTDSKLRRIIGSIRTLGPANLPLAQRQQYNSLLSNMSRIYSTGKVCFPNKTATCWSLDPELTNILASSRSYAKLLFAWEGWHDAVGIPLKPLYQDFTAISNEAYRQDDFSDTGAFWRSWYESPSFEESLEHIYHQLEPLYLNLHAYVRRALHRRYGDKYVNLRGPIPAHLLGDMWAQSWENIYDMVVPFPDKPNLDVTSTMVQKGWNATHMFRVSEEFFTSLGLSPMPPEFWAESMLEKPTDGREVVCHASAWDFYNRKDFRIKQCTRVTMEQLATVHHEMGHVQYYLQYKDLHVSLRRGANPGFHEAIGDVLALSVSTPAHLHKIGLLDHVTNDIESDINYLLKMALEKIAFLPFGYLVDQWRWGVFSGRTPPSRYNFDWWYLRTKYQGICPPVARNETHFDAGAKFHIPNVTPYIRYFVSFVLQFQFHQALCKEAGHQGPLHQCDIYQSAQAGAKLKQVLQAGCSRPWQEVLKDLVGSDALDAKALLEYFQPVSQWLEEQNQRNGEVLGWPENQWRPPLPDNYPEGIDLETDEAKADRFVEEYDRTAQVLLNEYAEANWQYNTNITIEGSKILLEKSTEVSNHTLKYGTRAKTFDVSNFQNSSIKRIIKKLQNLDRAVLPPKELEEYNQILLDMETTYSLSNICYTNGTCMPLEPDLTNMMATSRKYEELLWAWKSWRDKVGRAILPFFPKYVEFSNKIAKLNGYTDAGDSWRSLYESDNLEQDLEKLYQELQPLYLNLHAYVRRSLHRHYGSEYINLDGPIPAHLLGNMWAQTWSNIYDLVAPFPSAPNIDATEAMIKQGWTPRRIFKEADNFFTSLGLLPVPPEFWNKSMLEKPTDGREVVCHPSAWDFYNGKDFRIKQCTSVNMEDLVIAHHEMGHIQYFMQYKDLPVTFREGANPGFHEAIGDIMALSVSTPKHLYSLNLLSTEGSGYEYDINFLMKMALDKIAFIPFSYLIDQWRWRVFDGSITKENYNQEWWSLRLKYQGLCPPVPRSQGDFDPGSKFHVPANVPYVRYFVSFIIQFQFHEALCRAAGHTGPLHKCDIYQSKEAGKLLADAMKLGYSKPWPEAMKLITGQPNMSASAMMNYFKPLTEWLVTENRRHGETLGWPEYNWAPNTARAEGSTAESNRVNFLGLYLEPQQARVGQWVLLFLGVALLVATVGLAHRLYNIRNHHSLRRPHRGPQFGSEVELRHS
Experimental: The ACE activity of the cell surface was measured by a modified method of the method described in Sabatini, R. et al., Anal Biochem 363: 255-262, 2007.
10 μM Abz-FRK(Dnp)P-OH (Sigma, St. Louis) was added and the cells were incubated at 37° C. for a given time. The reaction was quenched by placing them on ice. After centrifugation, fluorescence in the supernatant was measured at excitation wavelength of 320 nm and emission wavelength of 420 nm (FIG. 25).

serum peptidase [8] = test system: serum peptidase
Experimental: as §1, §2

in vitro = settings: mouse, serum
Experimental: as §1, §2

[9] = low concentration of pulsed peptide (0.1 μM or less) (FIG. 5)

Compound: ISQAVHAAHAEINEAR [OVII+]
binding activity to I-A^d molecule, effect of added Arg (I-A^d molecule): did not affect the binding activity to I-A^d molecule

Compound: C[C@H](CS)C(=O)N1CCC[C@H]1C(=O)O [captopril]
inhibition of OVII peptide digestion / peptidase activity in serum [1]: suppressed in a concentration-dependent manner
sensitization activity of OVII on addition of captopril (DO11.10 cells [2]; 2.5 mM captopril in medium (FIGS. 14, 15)): improved the sensitization activity of OVII to a level close to that of OVIIPA peptide
survival of DO11.10 cells (DO11.10 cells [2]; 5 mM captopril): cannot survive

remaining at 16 h [3]: ~70%
digestion resistance to serum peptidases (in words) (serum peptidase [4]): very strong enzyme resistance
Compound: PSISQAVHAAHAEINEA [POVII]

Compound: ISQAVHAAHAEINEAGR (peptide inducing Th) [OVAII]
migration of DO11.10 cells through F2-IA^d cell layer (DO11.10 cells [5]; high concentration of pulsed peptide (FIG. 5)): did not migrate by penetrating the F2-IA^d cell layer
migration of DO11.10 cells through F2-IA^d cell layer (DO11.10 cells [5]; [9]): actively migrated, and penetrated the F2-IA^d cell layer
expression of CD69 in DO11.10 cells (DO11.10 cells [6]; F2-IA^d cells pulsed with 0.1 μM peptide): induced expression of CD69 in DO11.10 cells to the same level as when OVA-loaded EL4 was incorporated
stimulation of DO11.10 cells by peptide-pulsed endothelial cells (DO11.10 cells [6]; F2-IA^d cells pulsed with peptide (FIG. 2)): could stimulate DO11.10 cells
induction of the expression of CD69 (DO11.10 cells [6]; [9]): induction of the expression of CD69 was hardly confirmed
tumor control, Th peptide together with OVA-I (EG7 tumor): enabled better control of the tumor; also recorded: completely disappeared in a part of the mice

Compound: PVLDFAPPGASAYGS [WA36, WT1 antigen-derived polypeptide]
induction of Th cell to the tumor antigen in in vivo immunization (Th cell): induction of Th cell was extremely difficult

Compound: KRYFKLSHLQMHSRKH [W332, WT1 antigen-derived polypeptide]
antitumor activity, Th-inducing peptide together with Db126 peptide ([7]; 50 nmoles each peptide s.c. with Wc adjuvant, 3 times, FBL3 tumor (FIG. 29)): stronger antitumor activity than Db126 single peptide immunization
long-term remaining tumor, Th-inducing peptide together with Db126 peptide ([7]; FBL3 tumor, vs Wc alone, Db126 or W332 single immunization): tends to shrink

inhibition of OVII peptide digestion / peptidase activity in serum [1]: almost completely inhibited
inhibition of peptide degrading enzyme activity associated with living cells (ACE): inhibited
Compound: c1cnc2c(c1)ccc1cccnc12 [o-phenanthrolin]

undigested peptide left (serum peptidase [8]): undigested peptide was not left
metabolised at 2 h (in vitro): 40%
Compound: ISQAVHAAHAEINEA [OVII]

Source: US20140341939A1 (NATIONAL UNIVERSITY CORPORATION KOCHI UNIVERSITY, priority 2011, published 2014)
